The IC50 is the concentration needed to halve the response being measured.

Assay type in all cases: biochemical
Assay [1] has as its target constitutive proteasome β5c subunit (Homo sapiens, UniProt P28074). The assay can be described thus: Caliper-based proteasome enzymatic activity assay, β5c. Conditions: human recombinant constitutive proteasome 0.3 nM, FAM peptide substrate 1 μM, rt 3 h.
Assay [2] concerns the target immunoproteasome LMP2 subunit (Homo sapiens, UniProt P28065). The assay is described as follows: Caliper-based proteasome enzymatic activity assay, LMP2. Conditions: human recombinant immunoproteasome 0.3 nM, FAM peptide substrate 1 μM, rt 2 h.
Assay [3] concerns the target immunoproteasome LMP7/B5i subunit (Homo sapiens, UniProt P28062). The assay can be described thus: Caliper-based proteasome enzymatic activity assay, LMP7. Particulars: human recombinant immunoproteasome 0.3 nM, FAM peptide substrate 1 μM, rt 3 h.

As to `CC1(C)COCCN1C(=O)C(C#N)=Cc1cccc(CCOC(=O)N[C@@H](Cc2ccccc2)B(O)O)c1` [Example 79, (R)-(1-(((3-(2-cyano-3-(3,3-dimethylmorpholino)-3-oxoprop-1-en-1-yl)phenethoxy)carbonyl)amino)-2-phenylethyl)boronic Acid], the half-maximal inhibitory concentration (IC50) amounted to 998 nM in assay [1], 1600 nM in assay [2] and 0.9 nM in assay [3].

Turning to `N#CC(=Cc1cccc(CCCC(=O)N[C@@H](Cc2ccccc2)B(O)O)c1)n1cncn1` [Example 25, (R)-(1-(4-(3-(2-cyano-2-(1H-1,2,4-triazol-1-yl)vinyl)phenyl)butanamido)-2-phenylethyl)boronic Acid], the IC50 was 4150 nM in assay [1], 3000 nM in assay [2] and 8 nM in assay [3].

Regarding `N#CC(=Cc1cccc(CCOC(=O)N[C@@H](Cc2ccccc2)B(O)O)c1)C(=O)N(C1CCOCC1)C1CCOCC1` [Example 72, (R)-(1-(((3-(3-(bis(tetrahydro-2H-pyran-4-yl)amino)-2-cyano-3-oxoprop-1-en-1-yl)phenethoxy)carbonyl)amino)-2-phenylethyl)boronic Acid], the IC50 in assay [1] is greater than 5000 nM; in assay [2], greater than 5000 nM; in assay [3], 1.4 nM.

Regarding `Cc1ccc(C[C@H](NC(=O)OCCc2cccc(C=C(C#N)C(=O)N3[C@H](C)COC[C@H]3C)c2)B(O)O)cc1` [Example 85, ((R)-1-(((3-(2-cyano-3-((3R,5R)-3,5-dimethylmorpholino)-3-oxoprop-1-en-1-yl)phenethoxy)carbonyl)amino)-2-(p-tolyl)ethyl)boronic Acid], the IC50 in assay [1] was 1170 nM; in assay [2], greater than 5000 nM; in assay [3], 1.1 nM.

In the case of `N#CC(=Cc1cccc(OCCC(=O)N[C@@H](Cc2ccccc2)B(O)O)c1)c1ncccc1F` [Example 34, (R)-(1-(3-(3-(2-cyano-2-(3-fluoropyridin-2-yl)vinyl)phenoxy)propanamido)-2-phenylethyl)boronic Acid], the values for the IC50 in assay [1], in assay [2] and in assay [3] were 80 nM, 120 nM and 8 nM, respectively.

For the compound `CN(C(=O)C(C#N)=Cc1cccc(OCCC(=O)N[C@@H](Cc2ccccc2)B(O)O)c1)c1ccccc1` [Example 22, (R)-(1-(3-(3-(2-cyano-3-(methyl(phenyl)amino)-3-oxoprop-1-en-1-yl)phenoxy)propanamido)-2-phenylethyl)boronic Acid], the values for the IC50 in assay [1], in assay [2] and in assay [3] were 27 nM, 100 nM and 3 nM, respectively.

`Cc1ccc(C[C@H](NC(=O)OCCc2cccc(C=C(C#N)C(=O)N3[C@@H](C)COC[C@@H]3C)c2)B(O)O)cc1` [Example 92, ((R)-1-(((3-(2-cyano-3-((3S,5S)-3,5-dimethylmorpholino)-3-oxoprop-1-en-1-yl)phenethoxy)carbonyl)amino)-2-(p-tolyl)ethyl)boronic Acid]: the IC50 in assay [1] is 532 nM; in assay [2], greater than 5000 nM; in assay [3], 0.6 nM.

`CCN(CC)C(=O)C(C#N)=Cc1cccc(OCCC(=O)N[C@@H](Cc2ccccc2)B(O)O)c1` [Example 7, (R)-1-(3-(3-(2-cyano-3-(diethylamino)-3-oxoprop-1-enyl)phenoxy)propanamido)-2-phenylethylboronic Acid]: the IC50 in assay [1] was found to be 60 nM; in assay [2], 500 nM; in assay [3] it was 5 nM.

As to `Cc1ccc(C[C@H](NC(=O)OCCc2cccc(C=C(C#N)c3ccccn3)c2)B(O)O)cc1` [Example 57, (R)-(1-(((3-(2-cyano-2-(pyridin-2-yl)vinyl)phenethoxy)carbonyl)amino)-2-(p-tolyl)ethyl)boronic Acid], the 50% inhibitory concentration (IC50) in assay [1] is 188 nM; in assay [2] it was greater than 5000 nM; in assay [3] it was 1.8 nM.

Take `CCN(C(=O)C(C#N)=Cc1cccc(CCOC(=O)N[C@@H](Cc2ccccc2)B(O)O)c1)C(C)(C)C` [Example 69, (R)-(1-(((3-(3-(tert-butyl(ethyl)amino)-2-cyano-3-oxoprop-1-en-1-yl)phenethoxy)carbonyl)amino)-2-phenylethyl)boronic Acid]: the concentration for half-maximal inhibition (IC50) in assay [1] was 3020 nM; in assay [2], 3190 nM; in assay [3] it was 2.2 nM.

As for `Cc1ccc(C[C@H](NC(=O)CCOc2cccc(C=C(C#N)c3ccccn3)c2)B(O)O)c(C)c1` [Example 45, (R)-1-(3-(3-(2-cyano-2-(pyridin-2-yl)vinyl)phenoxy)propanamido)-2-(2,4-dimethylphenyl)ethylboronic Acid], the results for the IC50 in assay [1], in assay [2] and in assay [3] were 92.7 nM, 1250 nM and 4.3 nM, respectively.

As to `COc1ccc(C=C(C#N)c2ccccn2)cc1OCCC(=O)N[C@@H](Cc1ccccc1)B(O)O` [Example 29, (R)-(1-(3-(5-(2-cyano-2-(pyridin-2-yl)vinyl)-2-methoxyphenoxy)propanamido)-2-phenylethyl)boronic Acid], the half-inhibitory concentration (IC50) in assay [1] was found to be 36 nM; in assay [2], 17 nM; in assay [3], 6 nM.

As for `Cc1ccc(C[C@H](NC(=O)NCCc2cccc(C=C(C#N)c3ncccn3)c2)B(O)O)cc1` [Example 83, (R)-(1-(3-(3-(2-cyano-2-(pyrimidin-2-yl)vinyl)phenethyl)ureido)-2-(p-tolyl)ethyl)boronic Acid], the IC50 in assay [1] is 1970 nM; in assay [2], greater than 5000 nM; in assay [3] it was 37 nM.

For `CN(C)C(=O)C(C#N)=Cc1cccc(OCCC(=O)N[C@@H](Cc2ccccc2)B(O)O)c1` [Example 5, (R)-1-(3-(3-(2-cyano-3-(dimethylamino)-3-oxoprop-1-enyl)phenoxy)propanamido)-2-phenylethylboronic Acid], the results for the IC50 in assay [1], in assay [2] and in assay [3] were 95 nM, 140 nM and 3 nM, respectively.

Take `CCNC(=O)C(C#N)=Cc1cccc(OCCC(=O)N[C@@H](Cc2ccccc2)B(O)O)c1` [Example 31, (R)-(1-(3-(3-(2-cyano-3-(ethylamino)-3-oxoprop-1-en-1-yl)phenoxy)propanamido)-2-phenylethyl)boronic Acid]: the results for the IC50 in assay [1], in assay [2] and in assay [3] were 120 nM, 270 nM and 4 nM, respectively.

As to `CN(C)C(=O)C(C#N)=Cc1cccc(COCC(=O)N[C@@H](Cc2ccccc2)B(O)O)c1` [Example 49, (R)-(1-(2-((3-(2-cyano-3-(dimethylamino)-3-oxoprop-1-en-1-yl)benzyl)oxy)acetamido)-2-phenylethyl)boronic Acid], the IC50 in assay [1] came to 1130 nM; in assay [2], 2900 nM; in assay [3] it was 4.9 nM.

Take `Cc1ccc(C[C@H](NC(=O)OCCc2cccc(C=C(C#N)c3ncccn3)c2)B(O)O)cc1` [Example 87, (R)-(1-(((3-(2-cyano-2-(pyrimidin-2-yl)vinyl)phenethoxy)carbonyl)amino)-2-(p-tolyl)ethyl)boronic Acid]: the IC50 in assay [1] was 197 nM; in assay [2] it was greater than 5000 nM; in assay [3] it was 1.6 nM.

With `N#CC(=Cc1cccc(CCNC(=O)N[C@@H](Cc2ccccc2)B(O)O)c1)c1ccc(C(F)(F)F)cn1` [Example 73, (R)-(1-(3-(3-(2-cyano-2-(5-(trifluoromethyl)pyridin-2-yl)vinyl)phenethyl)ureido)-2-phenylethyl)boronic Acid], the IC50 was 1900 nM in assay [1], 2000 nM in assay [2] and 66.4 nM in assay [3].

For the origin of these results see patent US12024531B2, “Immunoproteasome inhibitors” (Principia Biopharma Inc., priority 2017, dated 2024).
